Data from the NIST ThermoML archive (doi:10.1021/je100832h).

Tests used:
[1] = xn = mol fraction of the nth substance listed; details: 101.32 kPa, Liquid, Vibrating tube method
[2] = Liquid; for mass density: 101.32 kPa, Vibrating tube method
[3] = excess molar enthalpy (molar enthalpy of mixing); xn = mol fraction of the nth substance listed; details: 291.15 K, 101 kPa, Liquid, Calvet calorimetry

CCOC(C)=O [ethyl acetate] + CCCCC
[1], x1 = 1
Details | mass density [kg/m3]
291.15 K | 902.88
298.15 K | 894.4

CCOC(C)=O [ethyl acetate] + CCCCCCCC
[1], x1 = 1
Details | mass density [kg/m3]
291.15 K | 902.88
298.15 K | 894.4
318.15 K | 869.6
328.15 K | 857.17

CCOC(C)=O [ethyl acetate] + CCCCCCCCC
[1], x1 = 1
Details | mass density [kg/m3]
291.15 K | 902.88
298.15 K | 894.4
318.15 K | 869.6
328.15 K | 857.17

CCOC(C)=O [ethyl acetate] + CCCCCCCCCC
[1], x1 = 1
Details | mass density [kg/m3]
291.15 K | 902.88
298.15 K | 894.4
318.15 K | 869.6
328.15 K | 857.17

CCCCCCC [heptane] + CCOC(C)=O
[1], x2 = 0
Details | mass density [kg/m3]
291.15 K | 685.28
298.15 K | 679.48
318.15 K | 662.06
328.15 K | 653.6

CCCCCC [hexane] + CCOC(C)=O
[1], x2 = 0
Details | mass density [kg/m3]
291.15 K | 661.17
298.15 K | 654.9
318.15 K | 636.5
328.15 K | 627

CCCCCCCC [octane]
[2]
Details | mass density [kg/m3]
291.15 K | 704.13
298.15 K | 698.6
318.15 K | 682.16
328.15 K | 674.15

[2], Ebulliometric method (Recirculating still)
Details | vapor or sublimation pressure [kPa]
350.64 K | 21.09
353.05 K | 23.14
355.76 K | 25.56
356.97 K | 26.7
358.82 K | 28.55
361.59 K | 31.58
363.86 K | 34.16
365.82 K | 36.53
367.65 K | 38.88
369.09 K | 40.82
370.77 K | 43.19
372.39 K | 45.57
374.01 K | 48.04
375.61 K | 50.59
377 K | 52.9
378.25 K | 55.02
380.03 K | 58.2
381.34 K | 60.63
382.42 K | 62.68
383.64 K | 65.07
384.76 K | 67.34
386.29 K | 70.52
387.45 K | 73.02
388.55 K | 75.43
389.65 K | 77.94
390.56 K | 80.05
391.6 K | 82.51
392.6 K | 84.94
393.47 K | 87.09
394.37 K | 89.39
395.14 K | 91.38
396.04 K | 93.64
396.95 K | 96.14
397.9 K | 98.73
398.19 K | 99.59
398.59 K | 100.68
398.83 K | 101.32
399.61 K | 103.61
400.53 K | 106.23
401.23 K | 108.3
402.03 K | 110.71
402.81 K | 113.09
403.32 K | 114.65
403.81 K | 116.17
404.1 K | 117.1
404.79 K | 119.25
405.51 K | 121.6
406.27 K | 124.1
407.03 K | 126.61
407.89 K | 129.5
408.75 K | 132.46
409.62 K | 135.53
410.15 K | 137.42
410.83 K | 139.87
422.1 K | 185.56
422.64 K | 188.02
423.26 K | 190.85
423.76 K | 193.15
424.15 K | 195.02
424.76 K | 197.87
425.2 K | 199.97

CCCCC [pentane]
[2]
Details | mass density [kg/m3] | vapor or sublimation pressure [kPa]
291.15 K | 628.22 | –
298.15 K | 621.35 | –
309.3 K | – | 101.32

CCCCC [pentane] + CCOC(C)=O
mass density [kg/m3], [1]
Details | 291.15 K | 298.15 K
x2 = 0 | 628.22 | 621.35
x2 = 0.0126 | 630.77 | –
x2 = 0.026 | – | 626.34
x2 = 0.0577 | 640.44 | –
x2 = 0.0607 | – | 633.6
x2 = 0.0897 | – | 639.94
x2 = 0.0922 | 648.09 | –
x2 = 0.1609 | – | 655.94
x2 = 0.1813 | 668.69 | –
x2 = 0.2315 | – | 672.51
x2 = 0.2507 | 685.25 | –
x2 = 0.3028 | – | 690.12
x2 = 0.3232 | 703.25 | –
x2 = 0.3576 | – | 703.99
x2 = 0.3916 | 721.01 | –
x2 = 0.4301 | – | 722.92
x2 = 0.4566 | 738.23 | –
x2 = 0.4703 | – | 733.71
x2 = 0.5276 | – | 749.44
x2 = 0.5296 | 758.09 | –
x2 = 0.5916 | 775.48 | –
x2 = 0.6517 | 792.81 | –
x2 = 0.6553 | – | 785.76
x2 = 0.7126 | – | 802.69
x2 = 0.7164 | 812.13 | –
x2 = 0.7725 | – | 820.79
x2 = 0.7788 | 831.21 | –
x2 = 0.8245 | – | 836.93
x2 = 0.8582 | 856.32 | –
x2 = 0.8825 | – | 855.3
x2 = 0.8961 | 868.57 | –
x2 = 0.9342 | – | 872.31
x2 = 0.9693 | 892.55 | –
x2 = 0.9896 | – | 890.79

[3]
Details | excess molar enthalpy [kcal/mol]
x2 = 0.0628 | 0.0777
x2 = 0.1353 | 0.139
x2 = 0.2024 | 0.194
x2 = 0.2623 | 0.232
x2 = 0.3345 | 0.274
x2 = 0.4047 | 0.295
x2 = 0.4549 | 0.305
x2 = 0.514 | 0.307
x2 = 0.5664 | 0.3
x2 = 0.6434 | 0.283
x2 = 0.7049 | 0.256
x2 = 0.7712 | 0.221
x2 = 0.8427 | 0.175
x2 = 0.9116 | 0.118
x2 = 0.9483 | 0.065
